Measured values published in PubChem BioAssay AID588524 (Sanford-Burnham Center for Chemical Genomics, 2011).

The compounds below were run against Apoptotic protease-activating factor 1 (Homo sapiens) (UniProt O14727) (assay: Apaf-1 inhibitor potency, dose response, fluorescence, uHTS hits (AID 588524)). Conditions: Apaf-1 apoptosome assay, fluorescence read-out.
Chain of Apoptotic protease-activating factor 1 (Homo sapiens) (O14727 whole entry, looked up): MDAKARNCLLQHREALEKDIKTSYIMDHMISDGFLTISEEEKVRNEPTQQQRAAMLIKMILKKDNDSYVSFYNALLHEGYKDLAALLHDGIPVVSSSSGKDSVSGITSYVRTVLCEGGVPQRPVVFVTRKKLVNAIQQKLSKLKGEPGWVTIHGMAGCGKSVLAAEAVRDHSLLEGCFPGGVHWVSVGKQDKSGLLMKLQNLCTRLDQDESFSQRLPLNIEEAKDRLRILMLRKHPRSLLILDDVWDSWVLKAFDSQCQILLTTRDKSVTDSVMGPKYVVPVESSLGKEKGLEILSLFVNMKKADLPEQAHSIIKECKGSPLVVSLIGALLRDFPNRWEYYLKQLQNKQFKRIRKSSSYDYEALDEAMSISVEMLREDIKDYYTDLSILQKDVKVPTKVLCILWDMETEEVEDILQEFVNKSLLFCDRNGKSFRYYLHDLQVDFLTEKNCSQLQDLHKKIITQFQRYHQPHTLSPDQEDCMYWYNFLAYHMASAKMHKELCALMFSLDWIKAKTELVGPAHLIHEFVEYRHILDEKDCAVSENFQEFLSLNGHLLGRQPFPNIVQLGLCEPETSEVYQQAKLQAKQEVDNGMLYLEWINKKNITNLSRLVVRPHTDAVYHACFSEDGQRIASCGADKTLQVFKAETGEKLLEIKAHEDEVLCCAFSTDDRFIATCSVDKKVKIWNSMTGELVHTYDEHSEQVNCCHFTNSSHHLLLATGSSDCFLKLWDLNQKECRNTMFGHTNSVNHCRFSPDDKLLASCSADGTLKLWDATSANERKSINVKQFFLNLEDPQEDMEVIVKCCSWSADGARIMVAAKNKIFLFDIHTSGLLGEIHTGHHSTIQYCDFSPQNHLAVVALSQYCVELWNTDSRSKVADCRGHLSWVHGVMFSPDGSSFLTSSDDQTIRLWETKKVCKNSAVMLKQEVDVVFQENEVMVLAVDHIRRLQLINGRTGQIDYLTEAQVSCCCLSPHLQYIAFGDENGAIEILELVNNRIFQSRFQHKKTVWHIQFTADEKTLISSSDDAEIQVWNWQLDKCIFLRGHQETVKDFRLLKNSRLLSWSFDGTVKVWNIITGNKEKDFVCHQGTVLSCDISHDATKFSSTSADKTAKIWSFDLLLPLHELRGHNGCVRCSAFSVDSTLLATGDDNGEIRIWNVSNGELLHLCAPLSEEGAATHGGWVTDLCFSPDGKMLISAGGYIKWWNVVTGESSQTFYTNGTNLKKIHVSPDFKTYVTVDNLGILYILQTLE
C#CCOCCOCCOCCNc1nc(N2CCN(C(=O)CCCCCCCCCCNC(=O)Cn3cc(CCCCCN)nn3)CC2)nc(N2CCN(C(=O)CCCCCCCCCCNC(=O)[C@H]([C@@H](C)CC)n3cc(CCCCN=C(N)N)nn3)CC2)n1 was tested, and the IC50 was 12.9 µM.
In the case of C#CCOCCOCCOCCNc1nc(N2CCN(C(=O)CCCCCCCCCCNC(=O)[C@H](CCCCN)n3cc(CCO)nn3)CC2)nc(N2CCN(C(=O)CCCCCCCCCCNC(=O)[C@H](CCCCN)n3cc(CCO)nn3)CC2)n1, the IC50 is reported as 27.1 µM.
C#CCOCCOCCOCCNc1nc(N2CCN(C(=O)CCCCCCCCCCNC(=O)Cn3cc(CCCCCN)nn3)CC2)nc(N2CCN(C(=O)CCCCCCCCCCNC(=O)[C@H]([C@@H](C)CC)n3cc(CCCCCN)nn3)CC2)n1 was tested, and the IC50 was 24.3 µM.
For C#CCOCCOCCOCCNc1nc(N2CCN(C(=O)CCCCCCCCCCNC(=O)[C@H]([C@@H](C)CC)n3cc(CCCCN=C(N)N)nn3)CC2)nc(N2CCN(C(=O)CCCCCCCCCCNC(=O)[C@H](CCCCN)n3cc(C)nn3)CC2)n1, the IC50 was 21.4 µM.
In the case of C#CCOCCOCCOCCNc1nc(N2CCN(C(=O)CCCCCCCCCCNC(=O)[C@H](CCCCN)n3cc(C)nn3)CC2)nc(N2CCN(C(=O)CCCCCCCCCCNC(=O)[C@H](CCCN=C(N)N)n3cc(C[C@@H](C)CC)nn3)CC2)n1, the IC50 is reported as 15.3 µM.
CNc1ccc2nc3ccccc3[n+](C)c2c1 showed an IC50 of 11.5 µM.
C[n+]1c(-c2ccccc2)c2cc(N)ccc2c2ccc(N)cc21 gave an IC50 of 24.5 µM.
C#CCOCCOCCOCCNc1nc(N2CCN(C(=O)CCCCCCCCCCNC(=O)Cn3cc(CCCCCN)nn3)CC2)nc(N2CCN(C(=O)CCCCCCCCCCNC(=O)[C@H](CO)n3cc(CCCSC)nn3)CC2)n1 gave an IC50 of 24.6 µM.
In the case of C#CCOCCOCCOCCNc1nc(N2CCN(C(=O)CCCCCCCCCCNC(=O)Cn3cc(CCCCCN)nn3)CC2)nc(N2CCN(C(=O)CCCCCCCCCCNC(=O)Cn3cc(CCCCCN)nn3)CC2)n1, the IC50 is reported as 34.9 µM.
Work on C#CCOCCOCCOCCNc1nc(N2CCN(C(=O)CCCCCCCCCCNC(=O)[C@H](CO)n3cc(CCCSC)nn3)CC2)nc(N2CCN(C(=O)CCCCCCCCCCNC(=O)[C@H](CCCCN)n3cc(CCO)nn3)CC2)n1 yielded an IC50 of 36.3 µM.
CCCCCCCCCCCCCCCC[n+]1ccc(/C=N/O)cc1 was tested, and the IC50 was 29.3 µM.
For C#CCOCCOCCOCCNc1nc(N2CCN(C(=O)CCCCCCCCCCNC(=O)[C@@H](CCSC)n3cc(CCO)nn3)CC2)nc(N2CCN(C(=O)CCCCCCCCCCNC(=O)[C@H](CO)n3cc(CCCCCN)nn3)CC2)n1, the IC50 was 40 µM.
